Assay results as given in PMC5046141, “Discovery of Isoquinolinoquinazolinones as a Novel Class of Potent PPARγ Antagonists with Anti-adipogenic Effects” (Scientific Reports, 2016).

How the values were obtained:
[1] = test system: 3T3-L1 preadipocytes; assay: Oil Red O staining assay of adipocyte differentiation; format: cell-based, mouse; details: for inhibition at 25 µM: Mus musculus, 3T3-L1, relative absorbance from Oil Red O staining at 25 μM, read-out: Inhibitory activity (%) on adipocyte differentiation
Procedure: The GW9662-mediated inhibition of PPARγ was confirmed using an Oil Red O staining assay to measure adipocyte differentiation. To investigate whether the novel compounds could inhibit adipocyte differentiation, 3T3-L1 preadipocytes were incubated with differentiation medium (MDI; insulin, dexamethasone, and isobutyl methyl xanthine) in the presence of increasing concentrations of isoquinolinoquinazolinones. Adipogenesis was analyzed using Oil Red O staining after treatment with the compounds.
The mouse preadipocyte cell line 3T3-L1 was maintained at 37 °C in humidified air with 5% CO2. 3T3-L1 cells were cultured in Dulbecco’s modified Eagle medium (DMEM; Life Technologies) supplemented with 10% bovine serum (BS; Gibco Invitrogen, Carlsbad, California, USA) as growth medium. For adipocyte differentiation, cells were cultured for 2 days to full confluence in a 24-well plate and the growth medium was then replaced (day 0) with DMEM supplemented with 10% fetal bovine serum (FBS, Gibco Invitrogen, Carlsbad, California, USA), 5 μg/mL insulin (Sigma, St. Louis, Missouri, USA), 0.5 mM 3-isobutyl-1-methylxanthine (Sigma), and 1 μM dexamethasone (Sigma). After 48 h, the differentiation medium was replaced (day 2) with DMEM + 10% FBS containing 5 μg/mL insulin, and the cells were allowed to accumulate lipid droplets until experimental use.
The accumulation of lipids signifying the formation of adipocytes was observed by staining the differentiated cells with Oil Red O. Following differentiation, cells were washed twice with phosphate-buffered saline (PBS), fixed with 10% formalin for 60 min. Oil Red O stock solution (0.5%) was prepared in isopropanol and filtered in cellulose nitrate filters. Cells were stained with Oil Red O diluted 6:4 in water for 1 h at room temperature. Excess Oil Red O dye was washed off twice with distilled water and then dried. The stained lipid droplets within cells were visualized using an optical microscope and photographed with a digital camera at 100× magnification.

[2] = molecular target: T1, PPARγ2 (Mus musculus, UniProt P37238); assay: PPRE-Luc luciferase reporter assay of PPARγ2-induced transcriptional activity in 3T3-L1 cells; format: cell-based; details: for inhibition of PPARγ2 transfection (transcriptional activity), with rosiglitazone stimulation / inhibition of PPARγ2 transfection (transcriptional activity), compound alone: 5 μM; for inhibition of PPARγ2 transfection (transcriptional activity), compound alone: without rosiglitazone; for IC50: 3T3-L1 cotransfected with PPARγ2 and PPRE-Luc, read-out: IC50 with respect to PPARγ2-induced transcriptional activity
T1 construct: expressed in transfected cells; host or cells: 3T3-L1 (mouse preadipocytes), pCS4 CMV vector
T1 sequence (P37238 1-505): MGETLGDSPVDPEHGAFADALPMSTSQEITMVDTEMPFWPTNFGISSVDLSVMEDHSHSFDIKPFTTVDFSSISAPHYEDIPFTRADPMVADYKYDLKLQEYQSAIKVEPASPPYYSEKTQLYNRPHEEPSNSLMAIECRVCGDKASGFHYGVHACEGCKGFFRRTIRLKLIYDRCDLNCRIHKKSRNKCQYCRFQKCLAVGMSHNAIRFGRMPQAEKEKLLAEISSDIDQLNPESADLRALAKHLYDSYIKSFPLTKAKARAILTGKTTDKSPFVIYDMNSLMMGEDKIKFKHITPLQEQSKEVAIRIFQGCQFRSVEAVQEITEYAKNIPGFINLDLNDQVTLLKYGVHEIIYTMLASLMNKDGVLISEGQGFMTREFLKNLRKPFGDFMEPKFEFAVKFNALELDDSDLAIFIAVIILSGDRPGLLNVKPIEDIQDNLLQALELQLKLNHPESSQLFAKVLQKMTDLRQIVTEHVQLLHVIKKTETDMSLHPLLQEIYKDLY
Procedure: To analyze whether isoquinolinoquinazolinones inhibit the transactivation of PPARγ, 3T3-L1 cells were cotransfected with full-length PPARγ2 expression vector with a peroxisome proliferator response element (PPRE)-driven luciferase reporter gene (PPRE-Luc) that has been reported to respond to PPARγ[23][24]. […] Titration curves were generated using Graph Pad Prism®, and the IC50 value of each compound with respect to PPARγ2-induced transcriptional activity was determined.
The transcription activity was determined in 3T3-L1 cells transiently co-transfected with PPRE-driven luciferase reporter gene (PPRE-Luc) and PPARγ2 expression vector. […] After 24 h of transfection, the cells were cultured with indicated combination for 12 h. Luciferase activity was measured after 36 h.
For plasmids expressing PPARγ2, full length PPARγ2 (mouse, 1518 bp: NCBI Reference Sequence: NP_035276.2) was subcloned into CMV promoter-derived mammalian expression vector (pCS4). Plasmids for C285G, R288G mutant PPARγ2 were generated by PCR-based site-directed mutagenesis and also subcloned into CMV promoter-derived mammalian expression vector (pCS4).
3T3-L1 cells were transfected for indicated combinations of expression plasmids along with a luciferase reporter plasmid (PPRE-Luc). PPRE-Luc contains the consensus PPAR responsive element (PPRE). pCMV-β-gal was co-transfected for normalization of transfection efficiency. 24 h after transfection, cells were treated with indicated compounds for 12 h. Luciferase activities were measured using a luciferase reporter assay kit (Promega, Madison, WI, USA). Experiments were performed in triplicate and repeated at least three times.

Row | SMILES | inhibition at 25 µM [1] [%] | Inhibitory activity (%) on adipocyte differentiation ([1]; relative absorbance from Oil Red O staining at 25 μM, 25 µM) [%] | inhibition of PPARγ2 transfection (transcriptional activity), with rosiglitazone stimulation [2] [%] | inhibition of PPARγ2 transfection (transcriptional activity), compound alone [2] [%] | IC50 [2] [µM]
1 | COc1cc2cc3n(c(=O)c2cc1OC)CNc1cc(Cl)ccc1-3 [Compound 8o, 3-Chloro-10,11-dimethoxy-5H-isoquinolino[2,3-c]quinazolin-8(6H)-one] | 82.9 | 82.4 | 88 | 82 | 2.43
2 | O=C(Nc1ccccc1)c1cc([N+](=O)[O-])ccc1Cl [GW9662, reference compound] | 51.4 |  | 48 | 46 | 4.47
3 | COc1cc2cc3n(c(=O)c2cc1OC)CNc1ccc(Cl)cc1-3 [Compound 8n, 2-Chloro-10,11-dimethoxy-5H-isoquinolino[2,3-c]quinazolin-8(6H)-one] | 71.5 |  |  |  | 5.02
